The values below come from EP4813403A1, “USE OF GLP-1R/GIPR DOUBLE-TARGET AGONIST IN PREPARING ANIMAL DRUG” (Hangzhou Zhongmeihuadong Pharmaceutical Co., Ltd., priority 2023, dated 2025).

Data set [1] is described as follows: Pharmacokinetics following single administration in SD rats. To be noted: male, Sprague-Dawley, rat, in vivo, sc. Summed up: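 Male SD rats (230-268 g, n=3) dosed once at 50.0 nmol/kg s.c. or 25.0 nmol/kg i.v. Plasma proteins precipitated with acetonitrile containing internal standards; drug levels quantified by LC-MS/MS.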
Data set [2] in a line: Pharmacokinetics in cynomolgus monkeys. To be noted: cynomolgus monkey, in vivo. How it is done: After subcutaneous or intravenous administration to cynomolgus monkeys, plasma was collected and the drug concentration in plasma was determined to illustrate the in vivo pharmacokinetic properties of the compound according to the present invention. […] 70.0 µL of thawed plasma sample was taken. 70 µL of acetonitrile (containing 1 ng/ml of the internal standard) was added to precipitate protein. […] The mixture was vortexed for 5 minutes. 10 µL of the mixture solution was sampled and injected into the LC-MS/MS to determine the drug concentration in plasma. […] Table 9 Average Pharmacokinetic Parameters after Single Subcutaneous Administration to Cynomolgus Monkeys

The next data set concerns the target T1, human GIP Receptor (Homo sapiens, UniProt P48546).
T1 construct: expressed in transfected cells
T1 sequence (P48546 22-466): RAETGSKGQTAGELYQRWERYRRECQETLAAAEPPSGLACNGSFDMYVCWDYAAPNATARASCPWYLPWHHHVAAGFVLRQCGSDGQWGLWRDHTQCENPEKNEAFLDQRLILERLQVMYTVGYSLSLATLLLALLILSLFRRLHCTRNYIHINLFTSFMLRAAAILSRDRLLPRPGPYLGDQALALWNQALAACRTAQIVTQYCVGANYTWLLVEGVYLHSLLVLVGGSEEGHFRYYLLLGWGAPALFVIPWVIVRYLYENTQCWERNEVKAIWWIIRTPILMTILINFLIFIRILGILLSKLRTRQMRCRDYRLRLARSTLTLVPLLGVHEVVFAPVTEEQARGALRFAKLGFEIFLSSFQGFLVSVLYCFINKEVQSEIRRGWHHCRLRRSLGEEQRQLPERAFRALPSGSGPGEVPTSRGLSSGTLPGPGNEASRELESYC
Description: In vitro binding activity to human GIP receptor ([125I]GIP displacement, crude cell membranes). To be noted: ratio of the Ki value of the endogenous ligand to the Ki value of the test compound; larger ratio = stronger binding. How it is done: 89 µL of membrane dissolved in binding buffer (50 mM Hepes, pH 7.4, 5 mM MgCl2 , 5 mM EDTA, 0.005% TWEEN, 0.005% HSA) was transferred to a 96-well test plate (5 µg/well). The compound was serially diluted in DMSO, and then, 1 µL of the diluted compound or 100% DMSO was added to the test plate containing the membrane solution. 10 µL of [^125I] […] The test plate was left at room temperature for 90 minutes. The membrane complexes were harvested into a GF/B plate pre-coated with 0.5% PEI by using a Cell Harvester, and washed for 3 times with 500 µL of pre-cooled elution buffer (50 mM Hepes, pH 7.4, 500 mM NaCl) at 4°C. After drying at 37°C for 2 hours, 50 µL of scintillation fluid was added to each well. The plate was read with a MicroBeta2 scintillation counter after sealing and settling for at least 1 hour so as to determine the membrane bound radioligand level.
hGIP and the compound of the present invention were dissolved in DMSO and stored at -80°C. 98 µL of membrane dissolved in binding buffer (50 mM HEPES pH 7.4, 5 mM MgCl2, 1 mM CaCl2, 0.1% BSA, 0.005% Tween-20) was transferred to a 96-well test plate (15 µg/well). The compound was serially diluted in DMSO, and then, 2 µL of the diluted compounds or 100% DMSO was added to the test plate containing the membrane solution. […] The test plate was left at room temperature for 90 minutes. The membrane complexes were harvested into a GF/B plate pre-coated with 0.5% PEI by using a Cell Harvester, and washed for 3 times with 500 µL of pre-cooled elution buffer (50 mM Tris-HCl pH 7.4, 125 mM NaCl) at 4°C. After drying at 37°C for 2 hours, 50 µL of scintillation fluid was added to each well. The plate was read with a MicroBeta2 scintillation counter after sealing and settling for at least 1 hour so as to determine the membrane bound radioligand level.
The IC50 concentration was converted to Ki (Ki was the inhibition constant) using the Cheng-Prusoff equation. Table 1. Receptor Binding Affinity, Ki Ratio

A further data set deals with human GLP-1R (Homo sapiens, UniProt P43220). Kind of data set: In vitro binding activity to human GLP-1 receptor ([125I]GLP-1 displacement, crude cell membranes). On the set-up: expressed in transfected cells. The following applies: ratio of the Ki value of the endogenous ligand to the Ki value of the test compound; larger ratio = stronger binding.
Sequence of human GLP-1R (P43220 24-463): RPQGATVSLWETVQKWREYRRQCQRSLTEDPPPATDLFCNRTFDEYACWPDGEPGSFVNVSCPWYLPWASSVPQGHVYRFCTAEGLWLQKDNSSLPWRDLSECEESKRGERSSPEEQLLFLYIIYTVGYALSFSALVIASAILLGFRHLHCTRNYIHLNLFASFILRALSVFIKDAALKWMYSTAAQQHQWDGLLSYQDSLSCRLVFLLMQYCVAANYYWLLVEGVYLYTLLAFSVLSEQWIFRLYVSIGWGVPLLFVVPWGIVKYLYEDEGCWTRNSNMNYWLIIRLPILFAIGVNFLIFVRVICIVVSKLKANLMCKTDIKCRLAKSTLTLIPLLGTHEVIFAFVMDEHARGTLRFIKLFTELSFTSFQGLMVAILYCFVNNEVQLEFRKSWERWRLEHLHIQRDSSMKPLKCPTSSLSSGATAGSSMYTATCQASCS
Where [3] appears, read: SD rats, subcutaneous injection, 50 nmol/kg.
Setting [4] is: sc, cynomolgus monkeys, single subcutaneous administration, 25 nmol/kg.
The mark [5] stands for this setting: cynomolgus monkeys, single intravenous administration, 12.5 nmol/kg.

For `CC[C@H](C)[C@H](NC(=O)C(C)(C)NC(=O)[C@H](Cc1ccc(O)cc1)NC(=O)[C@H](CC(=O)O)NC(=O)[C@H](CO)NC(=O)[C@@H](NC(=O)C(C)(Cc1ccccc1)NC(=O)[C@@H](NC(=O)CNC(=O)[C@H](CCC(=O)O)NC(=O)C(C)(C)NC(=O)[C@@H](N)Cc1ccc(O)cc1)[C@@H](C)O)[C@@H](C)O)C(=O)NC(C)(C)C(=O)N[C@@H](CC(C)C)C(=O)N[C@@H](CC(=O)O)C(=O)N[C@@H](CCCCN)C(=O)N[C@@H](CCC(N)=O)C(=O)N[C@@H](C)C(=O)N[C@@H](CCC(N)=O)C(=O)N[C@@H](C)C(=O)N[C@@H](CCC(=O)O)C(=O)N[C@@H](Cc1ccccc1)C(=O)N[C@H](C(=O)N[C@@H](CCCCNC(=O)COCCOCCNC(=O)COCCOCCNC(=O)CC[C@H](NC(=O)CCCCCCCCCCCCCCCCCCCCC(=O)O)C(=O)O)C(=O)N[C@@H](Cc1c[nH]c2ccccc12)C(=O)N[C@@H](CC(C)C)C(=O)N[C@@H](CC(C)C)C(=O)N[C@@H](CCCCN)C(=O)NCC(=O)NCC(=O)N1CCC[C@H]1C(=O)N[C@@H](CO)C(=O)N[C@@H](CO)C(=O)NCC(=O)N[C@@H](C)C(=O)N1CCC[C@H]1C(=O)N1CCC[C@H]1C(=O)N1CCC[C@H]1C(=O)N[C@@H](CO)C(=O)N[C@@H](CCCCN)C(N)=O)C(C)C` (stereo partly shown) [Compound P014], the results for the Tmax in data set [1] and in data set [2] (sc) were 24 h and 16 ± 6.93 h, respectively. Further, the half-life in data set [1] was 14.8 ± 0.503 h; in data set [2] (sc), 52.7 ± 6.45 h. The “GIPR Ki ratio” value on human GIP Receptor was found to be 0.08. In addition, the “GLP-1R Ki ratio” value on human GLP-1R worked out at 0.37.

Regarding `CC[C@H](C)[C@H](NC(=O)C(C)(C)NC(=O)[C@H](Cc1ccc(O)cc1)NC(=O)[C@H](CC(=O)O)NC(=O)[C@H](CO)NC(=O)[C@@H](NC(=O)C(C)(Cc1ccccc1)NC(=O)[C@@H](NC(=O)CNC(=O)[C@H](CCC(=O)O)NC(=O)C(C)(C)NC(=O)[C@@H](N)Cc1ccc(O)cc1)[C@@H](C)O)[C@@H](C)O)C(=O)NC(C)(C)C(=O)N[C@@H](CC(C)C)C(=O)N[C@@H](CC(=O)O)C(=O)N[C@@H](CCCCN)C(=O)N[C@@H](CCC(N)=O)C(=O)N[C@@H](C)C(=O)N[C@@H](CCC(N)=O)C(=O)N[C@@H](C)C(=O)N[C@@H](CCC(=O)O)C(=O)N[C@@H](Cc1ccccc1)C(=O)N[C@H](C(=O)N[C@@H](CCCCNC(=O)COCCOCCNC(=O)COCCOCCNC(=O)COCCOCCNC(=O)CC[C@H](NC(=O)CCCCCCCCCCCCCCCCCCCCC(=O)O)C(=O)O)C(=O)N[C@@H](Cc1c[nH]c2ccccc12)C(=O)N[C@@H](CC(C)C)C(=O)N[C@@H](CC(C)C)C(=O)N[C@@H](CCCCN)C(=O)NCC(=O)NCC(=O)N1CCC[C@H]1C(=O)N[C@@H](CO)C(=O)N[C@@H](CO)C(=O)NCC(=O)N[C@@H](C)C(=O)N1CCC[C@H]1C(=O)N1CCC[C@H]1C(=O)N1CCC[C@H]1C(=O)N[C@@H](CO)C(=O)N[C@@H](CCCCN)C(N)=O)C(C)C` (stereo partly shown) [Compound P016], the results for the AUC(0-inf) in data set [1] (setting [3]), in data set [2] (setting [4]) and in data set [2] (setting [5]) were 5.07 ± 0.262 µM·h, 323 ± 44.6 µg·h/mL and 80 ± 21.1 µg·h/mL, respectively. The results for the exposure AUC(0-t) in data set [1] (setting [3]), in data set [2] (setting [4]) and in data set [2] (setting [5]) were 4.84 ± 0.27 µM·h, 319 ± 41.5 µg·h/mL and 78.2 ± 20.3 µg·h/mL, respectively. Also, the peak concentration (Cmax) in data set [1] (setting [3]) came out at 119 ± 7 nM; in data set [2] (setting [4]), 3000 ± 481 ng/mL. The half-life in data set [1] (SD rats, subcutaneous injection, 50 nmol/kg, read-out: T1/2 (converted)) was 14.1 ± 0.153 h; in data set [2] (sc, cynomolgus monkeys, single subcutaneous administration, 25 nmol/kg, read-out: T1/2 (converted)), 60.4 ± 12.8 h; in data set [2] (cynomolgus monkeys, single intravenous administration, 12.5 nmol/kg, read-out: T1/2 (converted)), 59.8 ± 8.95 h. Besides, the Tmax was found to be 24 h in data set [1] (SD rats, subcutaneous injection, 50 nmol/kg, read-out: Tmax) and 40 ± 13.9 h in data set [2] (sc, cynomolgus monkeys, single subcutaneous administration, 25 nmol/kg, read-out: Tmax). The C0 in data set [2] (setting [5]) was 1700 ± 335 ng/mL. Moreover, the “GIPR Ki ratio” value on human GIP Receptor stood at 0.11. The “GLP-1R Ki ratio” value at human GLP-1R was 0.63.

Regarding `CC[C@H](C)[C@H](NC(=O)C(C)(C)NC(=O)[C@H](Cc1ccc(O)cc1)NC(=O)[C@H](CC(=O)O)NC(=O)[C@H](CO)NC(=O)[C@@H](NC(=O)C(C)(Cc1ccccc1)NC(=O)[C@@H](NC(=O)CNC(=O)[C@H](CCC(=O)O)NC(=O)C(C)(C)NC(=O)[C@@H](N)Cc1ccc(O)cc1)[C@@H](C)O)[C@@H](C)O)C(=O)NC(C)(C)C(=O)N[C@@H](CC(C)C)C(=O)N[C@@H](CC(=O)O)C(=O)N[C@@H](CCCCN)C(=O)N[C@@H](CCC(N)=O)C(=O)N[C@@H](C)C(=O)N[C@@H](CCC(N)=O)C(=O)N[C@@H](C)C(=O)N[C@@H](CCC(=O)O)C(=O)N[C@@H](Cc1ccccc1)C(=O)N[C@H](C(=O)N[C@@H](CCCCN)C(=O)N[C@@H](Cc1c[nH]c2ccccc12)C(=O)N[C@@H](CC(C)C)C(=O)N[C@@H](CC(C)C)C(=O)N[C@@H](CCCCNC(=O)COCCOCCNC(=O)COCCOCCNC(=O)COCCOCCNC(=O)CC[C@H](NC(=O)CCCCCCCCCCCCCCCCCCCCC(=O)O)C(=O)O)C(=O)NCC(=O)NCC(=O)N1CCC[C@H]1C(=O)N[C@@H](CO)C(=O)N[C@@H](CO)C(=O)NCC(=O)N[C@@H](C)C(=O)N1CCC[C@H]1C(=O)N1CCC[C@H]1C(=O)N1CCC[C@H]1C(=O)N[C@@H](CO)C(=O)N[C@@H](CCCCN)C(N)=O)C(C)C` (stereo partly shown) [Compound P020], in data set [1], the Tmax amounted to 24 h and the half-life is 17.9 ± 0.57 h. Besides, in data set [2] (sc), the Tmax was 22.7 ± 10.1 h and the half-life is 67.4 ± 9.47 h. The “GIPR Ki ratio” value at human GIP Receptor came out at 0.05. At human GLP-1R, the “GLP-1R Ki ratio” value worked out at 1.36.

Regarding `CC[C@H](C)[C@H](NC(=O)C(C)(C)NC(=O)[C@H](Cc1ccc(O)cc1)NC(=O)[C@H](CC(=O)O)NC(=O)[C@H](CO)NC(=O)[C@@H](NC(=O)C(C)(Cc1ccccc1)NC(=O)[C@@H](NC(=O)CNC(=O)[C@H](CCC(=O)O)NC(=O)C(C)(C)NC(=O)[C@@H](N)Cc1ccc(O)cc1)[C@@H](C)O)[C@@H](C)O)C(=O)NC(C)(C)C(=O)N[C@@H](CC(C)C)C(=O)N[C@@H](CC(=O)O)C(=O)N[C@@H](CCCCN)C(=O)N[C@@H](CCC(N)=O)C(=O)N[C@@H](C)C(=O)N[C@@H](CCC(N)=O)C(=O)N[C@@H](C)C(=O)N[C@@H](CCC(=O)O)C(=O)N[C@@H](Cc1ccccc1)C(=O)N[C@H](C(=O)N[C@@H](CCCCN)C(=O)N[C@@H](Cc1c[nH]c2ccccc12)C(=O)N[C@@H](CC(C)C)C(=O)N[C@@H](CC(C)C)C(=O)N[C@@H](CCCCNC(=O)COCCOCCNC(=O)COCCOCCNC(=O)CC[C@H](NC(=O)CCCCCCCCCCCCCCCCCCCCC(=O)O)C(=O)O)C(=O)NCC(=O)NCC(=O)N1CCC[C@H]1C(=O)N[C@@H](CO)C(=O)N[C@@H](CO)C(=O)NCC(=O)N[C@@H](C)C(=O)N1CCC[C@H]1C(=O)N1CCC[C@H]1C(=O)N1CCC[C@H]1C(=O)N[C@@H](CO)C(=O)N[C@@H](CCCCN)C(N)=O)C(C)C` (stereo partly shown) [Compound P017], in data set [1], the time to peak (Tmax) is 24 h and the half-life was 18.7 ± 2.69 h. Besides, in data set [2] (sc), the Tmax was 48 ± 24 h and the half-life was 44.3 ± 4.8 h. Besides, the “GIPR Ki ratio” value at human GIP Receptor is recorded as 0.04. Also, the “GLP-1R Ki ratio” value at human GLP-1R is 0.56.

The Tmax is the time at which the peak concentration occurs. The AUC(0-inf) is the area under the concentration-time curve extrapolated to infinity. A high value points to more exposure. For orientation: AUC(0-t) means exposure summed from dosing to a finite time, without extrapolation to infinity. The low end stands for low exposure, the high end for high exposure. In general, Cmax refers to the maximum level reached in the sampled fluid or tissue.
